Source: patent US20260262643A1, “HERBICIDAL BENZOXAZINES” (FMC CORPORATION, priority 2022, published 2026)

Tests used:
[1] = tested on: goosegrass; test: Test A preemergence; format: in vivo, Eleusine indica; details: 1000 g ai/ha, 0 to 100 scale (0 no effect, 100 complete control), 10 days
Text: (§1) Seeds of plant species selected from barnyardgrass (Echinochloa crusgalli), blackgrass (Alopecurus myosuroides), corn (Zea mays), foxtail, giant (giant foxtail, Setaria faberi), goosegrass (Eleusine indica), kochia (Bassia scoparia), oat, wild (wild oat, Avena fatua), pigweed, palmer (palmer amaranth, palmer pigweed, Amaranthus palmeri), Pigweed, Redroot (redroot pigweed, Amaranthus retroflexus), ragweed (common ragweed, Ambrosia artemisiifolia), ryegrass, Italian (italian ryegrass, Lolium multiflorum), soybean (Glycine max), and wheat (Triticum aestivum) were planted into a blend of loam soil and sand and treated preemergence with a directed soil spray using test chemicals formulated in a non-phytotoxic solvent mixture which included a surfactant. At the same time, plants selected from these crops and weed species and also galium (catchweed bedstraw, Galium aparine) and horseweed (Erigeron canadensis) were planted in pots containing the same blend of loam soil and sand and treated with postemergence applications of test chemicals formulated in the same manner. Plants ranged in height from 2 to 10 cm and were in the one- to two-leaf stage for the postemergence treatment. Treated plants and untreated controls were maintained in a greenhouse for 10 days, after which time all treated plants were compared to untreated controls and visually evaluated for injury. Plant response ratings, summarized in Table A, are based on a 0 to 100 scale where 0 is no effect and 100 is complete control. A dash (-) response means no test result.

[2] = tested on: kochia; test: Test A preemergence; format: in vivo, Bassia scoparia; details: 1000 g ai/ha, 0 to 100 scale (0 no effect, 100 complete control), 10 days
Text: as §1

[3] = tested on: horseweed; test: Test A postemergence; format: in vivo, Erigeron canadensis; details: 1000 g ai/ha, Postemergence; 0 to 100 scale
Text: as §1

[4] = tested on: foxtail, giant; test: Test A preemergence; format: in vivo, Setaria faberi; details: 1000 g ai/ha, 0 to 100 scale (0 no effect, 100 complete control), 10 days
Text: as §1

[5] = tested on: foxtail, giant; test: Test A postemergence; format: in vivo, Setaria faberi; details: 1000 g ai/ha, Postemergence; 0 to 100 scale
Text: as §1

[6] = tested on: kochia; test: Test A postemergence; format: in vivo, Bassia scoparia; details: 1000 g ai/ha, Postemergence; 0 to 100 scale
Text: as §1

[7] = tested on: galium; test: Test A postemergence; format: in vivo, Galium aparine; details: 1000 g ai/ha, Postemergence; 0 to 100 scale
Text: as §1

[8] = tested on: goosegrass; test: Test A postemergence; format: in vivo, Eleusine indica; details: 1000 g ai/ha, Postemergence; 0 to 100 scale
Text: as §1

[9] = tested on: ryegrass, Italian; test: Test A preemergence; format: in vivo, Lolium multiflorum; details: 1000 g ai/ha, 0 to 100 scale (0 no effect, 100 complete control), 10 days
Text: as §1

[10] = tested on: ryegrass, Italian; test: Test A postemergence; format: in vivo, Lolium multiflorum; details: 1000 g ai/ha, Postemergence; 0 to 100 scale
Text: as §1

[11] = tested on: pigweed, palmer; test: Test A preemergence; format: in vivo, Amaranthus palmeri; details: 1000 g ai/ha, 0 to 100 scale (0 no effect, 100 complete control), 10 days
Text: as §1

[12] = tested on: pigweed, palmer; test: Test A postemergence; format: in vivo, Amaranthus palmeri; details: 1000 g ai/ha, Postemergence; 0 to 100 scale
Text: as §1

[13] = tested on: blackgrass; test: Test A preemergence; format: in vivo, Alopecurus myosuroides; details: 1000 g ai/ha, 0 to 100 scale (0 no effect, 100 complete control), 10 days
Text: as §1

[14] = tested on: blackgrass; test: Test A postemergence; format: in vivo, Alopecurus myosuroides; details: 1000 g ai/ha, Postemergence; 0 to 100 scale
Text: as §1

[15] = tested on: ragweed; test: Test A postemergence; format: in vivo, Ambrosia artemisiifolia; details: 1000 g ai/ha, Postemergence; 0 to 100 scale
Text: as §1

[16] = tested on: ragweed; test: Test A preemergence; format: in vivo, Ambrosia artemisiifolia; details: 1000 g ai/ha, 0 to 100 scale (0 no effect, 100 complete control), 10 days
Text: as §1

Cc1nc(-c2cccc(C(=O)N3C[C@H](C)Oc4c(Cl)cccc43)c2)no1 [Compound 120]
Plant response rating, Goosegrass [1]: 10
Plant response rating, Kochia [2]: 0
Plant response rating, Horseweed [3]: 0
Plant response rating, Foxtail, Giant [4]: 20
Plant response rating, Foxtail, Giant [5]: 20
Plant response rating, Kochia [6]: 50
Plant response rating, Galium [7]: 40
Plant response rating, Goosegrass [8]: 10
Plant response rating, Ryegrass, Italian [9]: 10
Plant response rating, Ryegrass, Italian [10]: 0
Plant response rating, Pigweed, Palmer [11]: 0
Plant response rating, Pigweed, Palmer [12]: 40
Plant response rating, Blackgrass [13]: 10
Plant response rating, Blackgrass [14]: 0
Plant response rating, Ragweed [15]: 0
Plant response rating, Ragweed [16]: 0
